pIC50: −log10 of the molar value. Read-outs that look alike come from different tables or passages of the source.
Assays:
MDA435/LCC6M cells [1] = assay: Viable cell count, Rh2 with paclitaxel, multidrug resistant breast cancer cells expressing P-glycoprotein; conditions: for pIC50: Homo sapiens, MDA435, 24 h
Description: (§1) Human breast cancer cells MDA435/LCC6 cells, both wild-type (MDA435/LCC6W) or a drug resistant strain expressing a transfected multidrug resistant gene encoding P-glycoprotein (MDA435/LCC6M), were incubated with 20 μg/ml or 30 μg/ml of Rh2 in the presence of paclitaxel at various concentrations. Viable cells were counted 24 hrs after treatment.

MDA435/LCC6W cells = assay: Viable cell count, Rh2 with paclitaxel, wild-type breast cancer cells; assay type: cell-based; conditions: Homo sapiens, L6W (wild-type MDA435/LCC6W)
Description: as §1

MDA435/LCC6M cells [2] = test system: MDA435/LCC6M cells
Description: as §1

[3] = test system: Mesothelioma cells (MS-1 cells); assay: Viability of non-Pgp multidrug resistant mesothelioma cells, Rh2 with cisplatin or paclitaxel; assay type: cell-based
[4] = test system: human prostate cancer cells LNCaP; assay: Cytotoxicity of Rh2 with mitoxantrone or paclitaxel, cellular viability of LNCaP cells; assay type: cell-based
Text: In one aspect, the invention provides therapeutically synergistic effects of Rh2 with chemotherapeutic compounds.

Compound | pIC50 (MDA435/LCC6M cells [1]; read-out: Calculated IC50 of paclitaxel, Pac. + 20 μg/ml Rh2) | pIC50 (MDA435/LCC6M cells [1]; read-out: Calculated IC50 of paclitaxel, Pac. + 30 μg/ml Rh2) | pIC50 (MDA435/LCC6M cells [1]; read-out: Calculated IC50 of paclitaxel, Paclitaxel alone) | Paclitaxel concentration at which cytotoxicity was shown in the presence of Rh2 (MDA435/LCC6M cells [1]; MDA435/LCC6M, with Rh2, as low as) | pIC50 (MDA435/LCC6W cells; no Rh2, viable cells counted 24 hrs after treatment, read-out: Calculated IC50 of paclitaxel, Paclitaxel alone) | pIC50 (MDA435/LCC6W cells; with 20 μg/ml Rh2, 24 hrs, read-out: Calculated IC50 of paclitaxel, Pac. + 20 μg/ml Rh2) | pIC50 (MDA435/LCC6W cells; with 30 μg/ml Rh2, 24 hrs, read-out: Calculated IC50 of paclitaxel, Pac. + 30 μg/ml Rh2) | Effect of Rh2 alone on the cells (MDA435/LCC6M cells [1]; MDA435/LCC6M, 20 or 30 μg/ml Rh2, 24 hrs) | Effect of Rh2 on cytotoxicity of paclitaxel (MDA435/LCC6M cells [2]) | Synergistic effect of Rh2 with cisplatin ([3]; 20 μg/ml Rh2, various cisplatin concentrations) | Synergistic effect of Rh2 with paclitaxel ([3]; 20 μg/ml Rh2, various paclitaxel concentrations) | Cytotoxicity of Rh2 alone ([4]; 20 μg/ml Rh2, LNCaP) | Effect of Rh2 on cytotoxicity of paclitaxel ([4]; 20 μg/ml Rh2, particularly 0.1 nM and 1 nM paclitaxel, LNCaP) | Effect of Rh2 on cytotoxicity of mitoxantrone ([4]; 20 μg/ml Rh2, wide range of mitoxantrone concentrations, LNCaP)
CC(=O)O[C@H]1C(=O)[C@@]2(C)[C@H]([C@H](OC(=O)c3ccccc3)[C@]3(O)C[C@H](OC(=O)[C@H](O)[C@@H](NC(=O)c4ccccc4)c4ccccc4)C(C)=C1C3(C)C)[C@]1(OC(C)=O)CO[C@@H]1C[C@@H]2O [Paclitaxel] | 9.82 | > 10.52 | 6.20 | 0.1 nM | 6.61 | 7.12 | 7.60 |  |  |  |  |  |  | 
CC(C)=CCC[C@](C)(O)[C@H]1CC[C@]2(C)[C@@H]1[C@H](O)C[C@@H]1[C@@]3(C)CC[C@H](O[C@@H]4O[C@H](CO)[C@@H](O)[C@H](O)[C@H]4O)C(C)(C)[C@@H]3CC[C@]12C [Rh2] |  |  |  |  |  |  |  | little or no effect on the cells | unexpectedly and significantly enhanced by Rh2 | significant | significant | little or no significant cytotoxicity alone | added significantly to the cytotoxicity of paclitaxel | added significantly to the cytotoxicity of mitoxatron

— patent US6759397B2, “Ginsenoside chemotherapy” (The University of British Columbia, priority 2000, dated 2004)
